Measurements: US10822317B2, “Methods and compositions for wound healing” (QBiotics Limited, priority 2013, dated 2020)

Assays:
[1] = test system: immortalised human keratinocyte cells (HaCaT); experiment: Scratch repopulation and closure with HaCaT; assay type: cell-based; conditions: 48 hours, ± standard error
Protocol: The ability of immortalised human keratinocyte cells (HaCaT) to migrate across a scratch wound made in a confluent monolayer following treatment with either Compound 1 or Compound 37 was determined by the following method.
Trypsinised HaCaT cells were seeded at a cell density of 7.4×10^4 cells/mL in 24-well BD Falcon flat-bottomed, tissue culture plates (VWR International, UK) in 1 mL Dulbecco's Modified Eagle Medium (DMEM), supplemented with L-glutamine (2 mM), antibiotics (100 U/mL penicillin G sodium, 100 μg/mL streptomycin sulphate and 0.25 μg/mL amphotericin B); and 10% foetal calf serum (all Invitrogen Ltd., UK) to give a cell density of 7.4×10^4 cells seeded in each well. The cells were then maintained at 37° C. in a 5% CO2/95% air atmosphere overnight. The following morning, the 10% foetal calf serum-containing DMEM was replaced with serum-free DMEM and the HaCaT cells were subsequently serum-starved in DMEM for 48 hr.
After 48 hr, the serum-free DMEM was removed and a single scratch ‘wound’ made with a sterile pipette across each cell layer. Following washing twice in 1 mL PBS, Compound 1- or Compound 37-containing medium (1 mL) was added to each well. This medium consisted of DMEM, supplemented with L-glutamine (2 mM), antibiotics (as above) and 1% foetal calf serum, in addition to Compound 1 or Compound 37 at final concentrations of 0, 0.001, 0.01, 0.1, 1.0, 10 or 100 μg/mL. There were three replicate wells per concentration for each compound.
The HaCaT cultures were maintained at 37° C. in a 5% CO2/95% air atmosphere and the repopulation of the denuded ‘wound’ areas monitored by Time-Lapse Confocal Microscopy (Leica TCS SP5 Confocal Microscope; Leica Microsystems UK Ltd., UK) at 100× magnification, with digital images captured at fixed positions every 20 min over a 48 h period. The digital image sequences were exported and prepared as .avi movie files, using LAS AF Software (Leica Microsystems). The rates of HaCaT wound closure in vitro were quantified using ImageJ Software (ImageJ 1.37v; http://rsb.info.nih.gov/ij/). The data was analysed by One Way Analysis of Variance with post-test Tukey analysis. Each experiment was performed on 3 separate occasions.

[2] = test system: chronic, non-healing wounds; experiment: Veterinary case studies 1 to 7, non-healing wounds in dogs; assay type: in vivo, Canis lupus familiaris
Protocol: Seven dogs (Canis lupus familiaris) and one tree kangaroo (Dendrolagus humholzii) with chronic, non-healing wounds that were unresponsive to current veterinary standards-of-care for these indications were treated with Compound 1 by independent veterinarians. A second tree kangaroo and a spectacled flying fox (Pteropus conspicillatus) with wounds unsuited for initial treatment with current standards-of-care were also treated with Compound 1. All cases were managed as open wounds without the use of dressings or other bandaging during the course of treatment with Compound 1 and the subsequent period of wound resolution. Unless stated in individual case studies, no concomitant medications were used over the course of treatments with Compound 1.
Case notes: • Frail patient with severe osteoarthritis, considered a high anaesthetic risk for any surgical intervention. • Patient had persistent infected cyst on the back proximal to the tail that had not responded to regular draining and injection of the cyst with antibiotics (gentamycin, enrofloxacin, norocillin) over a 5 month period. • Patient presented with the burst cyst and elevated temperature. The cyst was cleaned to remove dead skin and then flushed with saline and chlorhexidene.
The wound area was fully healed by 63 days after treatment. • The wound on leg also responded quickly with eschar present in localised areas. By 14 days the eschar had largely shed and healthy underlying granulation tissue was observed.
Case notes: • Patient presented with a non-healing laceration due to a hunting accident that had been present on the left ear for more than 6 weeks. • Three treatments, each of 0.1 mL of 5 mg/mL gel formulation of Compound 1, were applied to the affected area at 8 day intervals. No concomitant medications were used during the course of treatment of the patient with Compound 1. • By 41 days after the first treatment with Compound 1 the wound had fully closed.
Case notes: • The patient presented with non-healing (infected and inflamed) sore on upper part of left ear and was treated for 10 weeks with standard-of-care protocols involving regular application of (i) a topical dermatological formulation (Neotopic) combining antibacterial (neomycin sulphate), anti-inflammatory (hydrocortisone) and anti-pruritic (lignocaine) agents, and (b) a commercial suspension (Auracol) with anti-inflammatory (prednisolone), antifungal (miconazole nitrate) and antibacterial (polymixin B sulphate) components. Prior to these treatments the patient was on an on-going course of low dose oral corticosteroids (macrolone) for treatment of chronic canine atopic dermatitis syndrome. • After 10 weeks of the standard-of-care protocol there was no sign of wound resolution. • A single treatment of 3 mL of a 5 mg/mL gel formulation of Compound 1 was applied to the affected area and within 15 minutes of application of Compound 1 there was discernable reddening of the treated area. • From 4 days after treatment with Compound 1 the patient recommenced low dose daily corticosteroids (macrolone) for treatment of the severe atopic dermatitis.
Case notes: • The patient presented with two non-healing wounds at the tip and base of the right ear and a non-healing wound on the snout that owner had observed present for more than 4 weeks. Possible origin was infected spider or other insect bites. • Two treatments, each of 0.1 mL of 5 mg/mL gel formulation of Compound 1, were applied to both affected areas on the ears at a 5 day interval.

[3] = Case 1, 76 days following the final treatment
[4] = Case 5, 152 days after the initial treatment
[5] = Case 6, 83 days after treatment

CC=C(C)C(=O)OC1C(C)C2(O)C(C3OC3(CO)C(O)C3(O)C(=O)C(C)=CC32)C2C(C)(C)C12OC(=O)C(C)CC (stereo not shown) [Compound 1, 12-tigloyl-13-(2-methylbutanoyl)-6,7-epoxy-4,5,9,12,13,20-hexahydroxy-1-tigliaen-3-one]
% of scratch wound area remaining open after treatment ([1]; 0.001 μg/ml): 8.6 ± 9.4% | % of scratch wound area remaining open after treatment ([1]; 0.01 μg/ml): 19.7 ± 9.3% | % of scratch wound area remaining open after treatment ([1]; 0.1 μg/ml): 21.4 ± 5.8% | % of scratch wound area remaining open after treatment ([1]; 1.0 μg/ml): 35.4 ± 7.9% | % of scratch wound area remaining open after treatment ([1]; 10 μg/ml): 45.5 ± 7.3% | wound status ([2]; Case 1, Bernese Mountain Dog, facial wound, gel 3 mg/mL x5, then 1 mL 0.5 mg/mL injected, 35 days following injection): infilled with healthy differentiating granulation tissue | hair regrowth, % of the original wound area [2, 3]: greater than 95% | wound outcome [2, 3]: healed and was infilled with normal tissue minimal scarring | wound area as % of the area of the original wound ([2]; Case 2, Boxer, burst infected cyst, 0.5 mL gel 3 mg/mL, 5 days post treatment): less than 30% | hair regrowth over the original wound area ([2]; Case 2, 30 days): greater than 70% | wound outcome ([2]; Case 2, 30 days): resolved with normal tissue | wound size as % of original size ([2]; Case 3, Chow Chow, two bite wounds, 0.4 mL gel 3 mg/mL each, 15 days post treatment): less than 40% | wound outcome ([2]; Case 3, 46 days following treatment): completely resolved with normal tissue, no scarring and complete hair regrowth | time to complete wound closure, facial wound ([2]; Case 4, Boxer, single 0.4 mL gel 5 mg/mL): ≤ 14 days | hair cover, leg wound ([2]; Case 4, 63 days after treatment): greater than 95% | time to fully healed wound area, facial wound ([2]; Case 4, single 0.4 mL gel 5 mg/mL): ≤ 63 days | wound outcome, leg wound ([2]; Case 4, single 0.6 mL gel 5 mg/mL, 63 days after treatment): completely closed | time to full wound closure ([2]; Case 5, Bull Arab, ear laceration, 3 x 0.1 mL gel 5 mg/mL at 8 day intervals, after first treatment): ≤ 41 days | hair coverage over the original wound site [2, 4]: greater than 80% | wound outcome [2, 4]: complete wound resolution, minimal scarring | time to discernable reddening of the treated area ([2]; Case 6, Boxer, ear wound, single 3 mL gel 5 mg/mL): ≤ 15 min | wound status ([2]; Case 6, 17 days after treatment): no sign of infection or inflammation | hair regrowth, % of the original wound area [2, 5]: more than 90% | wound outcome [2, 5]: complete wound closure | scarring ([2]; Case 6, 139 days after treatment): no evidence of scarring | wound status, ear wounds ([2]; Case 7, Jack Russell Terrier, 2 x 0.1 mL gel 5 mg/mL, 13 days after the first treatment): contracted significantly and had formed eschars | time to full wound closure, ear wounds ([2]; Case 7, 2 x 0.1 mL gel 5 mg/mL): ≤ 29 days | wound outcome, snout wound ([2]; Case 7, single 0.1 mL gel 5 mg/mL, 16 days after treatment): fully resolved
